Results taken from US20250302862A1, “SMALL RNA DRUG FOR INHIBITING ACTIVITY OF CANCER CELLS” (Institute of Basic Medical Sciences Chinese Academy of …, priority 2022, published 2025).

Legend:
[1] = test system: breast cancer MDA-MB-231 cells; assay: Concentration-dependent proliferation inhibition, MTS; type: cell-based; conditions: gradient 0.01-100 noml/L, MTS after 48 h
Method: 1) Breast cancer MCF7 cells, breast cancer MDA-MB-231 cells, gastric cancer AGS cells, pancreatic cancer HS766T cells, pancreatic cancer ASPC-1 cells, and prostate cancer PC-3 cells with a cell density of more than 90% in 10 cm^2 plates were plated in 96-well according to the cell growth rate. Transfection was performed after 12 h, and the groups (3 wells per group) were divided as follows: • blank control group: 20 uL of opti-MEM • negative control group (NC group) and experimental group: • A. 10 uL of opti-MEM and 0.2 uL of iMax were mixed well for 5 min • B. 10 uL of opti-MEM and small RNA were mixed well (the concentration gradient of experimental group was set as: 0.01 noml/L, 0.03 noml/L, 0.1 noml/L, 0.39 noml/L, 0.78 noml/L, 1.56 noml/L, 3.125 noml/L, 6.25 noml/L, 12.5 noml/L, 25 noml/L, 50 noml/L, 100 noml/L; the final concentration of sRNA in NC group was 100 noml/L) • C. solution A and solution B were mixed well and let stand for 15 min, and then was added at a 20 uL system • Note: 100 uL of nuclease-free water was added to 2 nmol of small RNA dry powder for dissolution at a storage concentration of 20 umol/L
2) Detection of cell viability: MTS detection was performed after 48 h.
Formulation of MTS detection solution was as follows: opti-MEM:MTS A solution:MTS B solution=100:20:1. […] Absorbance values at wavelengths of 490 nm and 630 nm were measured in a microplate reader. […]

[2] = test system: pancreatic cancer ASPC-1 cells; assay: Cell migration (Transwell); type: cell-based, human; conditions: 100 nmol/L, jetPRIME, 72 h
Method: (§1) 1) ASPC-1 cells and BXPC-3 cells with a cell density of more than 90% in 10 cm^2 dishes were digested and then resuspended with 1 mL of serum-free medium and counted. 100,000 cells (100 uL) were plated in the upper chamber, and complete medium with 10% FBS was added to the lower chamber of each Transwell chamber. Transfection was performed after 12 h, and the groups (3 wells per group) were divided: • blank control group: 10 uL of jetPRIME Buffer • negative control group (NC group) and experimental group: 10 uL of jetPRIME Buffer was mixed well with 0.5 uL of jetPRIME reagent and 0.5 uL of small RNA and let stand for 15 min, and then was added to each well at a 10 uL system (final concentration 100 nmol/L) • Note: 100 uL of nuclease-free water was added to 2 nmol of small RNA dry powder for dissolution at a storage concentration of 20 umol/L
(§2) After 72 h, the medium in upper and lower chambers was discarded. The cells were fixed with paraformaldehyde at room temperature for 15 min, stained with 0.1% crystal violet at room temperature for 15 min, and rinsed with PBS. The cells in the upper chamber were gently wiped off with cotton swabs, and the chamber was dried. A Leica inverted microscope DMi8 was turned on, the 5× objective lens was selected, the parameters were adjusted and the white balance was performed following the manual. Each chamber was photographed, followed by counting and statistic processing.
as §1, with “divided as follows:” for “divided:”

[3] = test system: pancreatic cancer BXPC-3 cells; assay: Cell migration (Transwell); type: cell-based, human; conditions: 100 nmol/L, jetPRIME, 72 h
Method: as §1, §2
as §1, with “divided as follows:” for “divided:”

[4] = test system: prostate cancer PC-3 cells; assay: Apoptosis detection (Annexin V / PI); type: cell-based, human; conditions: 100 nmol/L, 48 h
Method: 1) PC-3 cells with a cell density of more than 90% in 10 cm^2 dishes were plated in 12-well plates according to the cell growth rate, and transfected after 12 h, and the groups were divided as follows: • blank control group (4 wells): 200 uL of opti-MEM per well • negative control group (NC group) and experimental group (3 wells each): the system of each well was as follows • A. 100 uL of opti-MEM and 2 uL of iMax were mixed well for 5 min • B. 100 uL of opti-MEM and 5 uL of small RNA (final concentration 100 nmol/L) were mixed well • C. solution A and solution B were mixed well and let stand for 15 min, and then was added to each well at a 200 uL system • Note: 100 uL of nuclease-free water was added to 2 nmol of small RNA dry powder for dissolution at a storage concentration of 20 umol/L
The supernatant and cells were collected after 48 h and washed twice with pre-chilled PBS. The 4 tubes of cells in the blank control group were added respectively with: (1) 200 uL of 1× binding buffer; (2) 200 uL of 1× binding buffer and 5 uL of Annexin V stain; (3) 200 uL of 1× binding buffer and 5 uL of PI stain; (4) 200 uL of 1× binding buffer, 5 uL of Annexin V stain and 5 uL of PI stain. […] The live cell population and the position of quadrant gate were selected according to the blank control group, and then the apoptosis of the NC group and the experimental group was detected.

MDM-sRNA-39: small RNA derived from Maytenus hookeri, sequence GGGAUUGUAGUUCAAUUGGUCAGAGCACC (listed as RNA, chemistry not given here)
proliferation-inhibiting function (cell activity, MTS) [1]: concentration-dependent
cell migration [2]: inhibits
cell migration [3]: inhibits
apoptosis [4]: promotes

MDM-sRNA-163: small RNA derived from Maytenus hookeri, sequence UGACUCUAGUCCGACUUUGUGAAAUGACU (listed as RNA, chemistry not given here)
proliferation-inhibiting function (cell activity, MTS) [1]: concentration-dependent
cell migration [2]: inhibits
cell migration [3]: inhibits
apoptosis [4]: promotes
